Patent US12098144B2, “Piperazine indazole glucocorticoid receptor antagonists” (Corcept Therapeutics Incorporated, priority 2021, dated 2024)

Biological target: T1, glucocorticoid receptor (Homo sapiens, UniProt P04150)
T1 construct: endogenous in cells; ATCC cat
T1 sequence (P04150 1-777): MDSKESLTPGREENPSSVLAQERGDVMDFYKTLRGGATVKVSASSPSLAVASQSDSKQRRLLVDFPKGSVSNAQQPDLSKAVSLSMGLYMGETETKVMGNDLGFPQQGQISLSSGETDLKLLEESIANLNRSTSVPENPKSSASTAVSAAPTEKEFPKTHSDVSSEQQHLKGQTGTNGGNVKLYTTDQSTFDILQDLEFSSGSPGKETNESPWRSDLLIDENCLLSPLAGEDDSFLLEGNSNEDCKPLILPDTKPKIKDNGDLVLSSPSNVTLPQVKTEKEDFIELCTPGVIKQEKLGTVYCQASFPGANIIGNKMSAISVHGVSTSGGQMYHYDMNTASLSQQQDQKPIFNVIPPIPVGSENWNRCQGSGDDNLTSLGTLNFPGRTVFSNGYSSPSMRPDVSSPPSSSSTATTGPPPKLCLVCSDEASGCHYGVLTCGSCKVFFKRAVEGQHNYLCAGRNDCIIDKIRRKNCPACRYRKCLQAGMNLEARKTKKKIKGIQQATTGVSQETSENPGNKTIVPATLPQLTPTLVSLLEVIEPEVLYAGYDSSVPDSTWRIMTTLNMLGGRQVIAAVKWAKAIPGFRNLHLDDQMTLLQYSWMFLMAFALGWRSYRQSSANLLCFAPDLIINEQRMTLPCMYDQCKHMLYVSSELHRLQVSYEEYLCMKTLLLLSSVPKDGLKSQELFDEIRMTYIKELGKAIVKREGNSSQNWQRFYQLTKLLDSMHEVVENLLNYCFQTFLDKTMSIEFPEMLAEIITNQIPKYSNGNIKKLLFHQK
Experiment: Hep G2 TAT IC50: inhibition of dexamethasone-induced TAT in HepG2 cells (384 well)
Assay type: cell-based
Protocol: Glucocorticoid mediated activation of TAT occurs by transactivation of glucocorticoid response elements in the TAT promoter by glucocorticoid receptor/agonist complex.
HepG2 cells were cultured using MEME media supplemented with 10% (v/v) foetal bovine serum, 2 mM L-glutamine, 1% (v/v) NEAA, and 1% (v/v) penstrep, at 37° C., 5%/95% (v/v) CO2/air.
Compounds were diluted from a 10 mM stock via an Echo Acoustic liquid handler into 10 μL assay media to generate a 10-point half-log dilution curve.
HepG2 cells were then lysed with 8 μL of cell lysis buffer containing a protease inhibitor cocktail for 15 minutes at 25° C. […] After a 2-hour incubation at 37° C. the reaction was terminated by the addition of 8 μL of 5 M aqueous potassium hydroxide solution, and the plates incubated for a further 30 minutes at 37° C.
[compound] and fitting the data to a 4-parameter logistic equation.

Compound | IC50
Cc1cc2c(cnn2-c2cc(C)c(=O)n(C)c2)cc1C1CN(S(=O)(=O)c2cccnc2)CCN1CCC(F)(F)F (stereo not shown) [Example 194, 1,3-dimethyl-5-(6-methyl-5-(4-(3-pyridylsulfonyl)-1-(3,3,3-trifluoropropyl)piperazin-2-yl)indazol-1-yl)pyridin-2-one] | 443 nM
CN(C)S(=O)(=O)N1CCN(CCC(F)(F)F)C(c2cc3cnn(-c4ccc(F)cc4)c3cc2Cl)C1 (stereo not shown) [Example 209, 3-(6-chloro-1-(4-fluorophenyl)indazol-5-yl)-N,N-dimethyl-4-(3,3,3-trifluoropropyl)piperazine-1-sulfonamide] | 3130 nM
Cc1cc2c(cnn2-c2cc(C)c(=O)n(C)n2)cc1C1CN(S(=O)(=O)c2cnn(C)n2)CCN1CCC(F)(F)F (stereo not shown) [Example 175, 2,4-dimethyl-6-(6-methyl-5-(4-(2-methyltriazol-4-yl)sulfonyl-1-(3,3,3-trifluoropropyl)piperazin-2-yl)indazol-1-yl)pyridazin-3-one] | 1240 nM
Cc1cc2c(cnn2-c2ccc(F)cc2)cc1C1CN(S(=O)(=O)N(C)C)CCN1CC1CC(F)(F)C1 (single isomer, unassigned) [Example 183, 4-((3,3-difluorocyclobutyl)methyl)-3-(1-(4-fluorophenyl)-6-methyl-indazol-5-yl)-N,N-dimethyl-piperazine-1-sulfonamide] | 2660 nM
COc1cc2c(cnn2-c2ccc(F)cc2)cc1C1CN(S(=O)(=O)N(C)C)CCN1CCC(F)(F)F (stereo not shown) [Example 212, 3-(1-(4-fluorophenyl)-6-methoxy-indazol-5-yl)-N,N-dimethyl-4-(3,3,3-trifluoropropyl)piperazine-1-sulfonamide] | 1440 nM

Continued, values first:

IC50 | Compound
2240 nM | COc1cc2c(cnn2-c2ccc(F)cc2)cc1C1CN(S(=O)(=O)N(C)C)CCN1CC1CC(F)(F)C1 (stereo not shown) [Example 213, 4-((3,3-difluorocyclobutyl)methyl)-3-(1-(4-fluorophenyl)-6-methoxy-indazol-5-yl)-N,N-dimethyl-piperazine-1-sulfonamide]
1040 nM | Cc1cc2c(cnn2-c2ccc(F)c(CO)c2)cc1C1CN(S(=O)(=O)c2cnn(C)n2)CCN1CCC(F)(F)F (stereo not shown) [Example 202, (2-fluoro-5-(6-methyl-5-(4-(2-methyltriazol-4-yl)sulfonyl-1-(3,3,3-trifluoropropyl)piperazin-2-yl)indazol-1-yl)phenyl)methanol]
3850 nM | Cc1cc2c(cnn2-c2cccc(C(F)F)c2)cc1C1CN(S(=O)(=O)c2cnn(C)n2)CCN1CCC(F)(F)F (stereo not shown) [Example 201, 1-(3-(difluoromethyl)phenyl)-6-methyl-5-(4-(2-methyltriazol-4-yl)sulfonyl-1-(3,3,3-trifluoropropyl)piperazin-2-yl)indazole]
589 nM | Cc1cc(-n2ncc3cc(C4CN(S(=O)(=O)N5CCOCC5)CCN4CCC(F)(F)F)c(Cl)cc32)cn(C)c1=O (stereo not shown) [Example 211, 5-(6-chloro-5-(4-morpholinosulfonyl-1-(3,3,3-trifluoropropyl)piperazin-2-yl)indazol-1-yl)-1,3-dimethyl-pyridin-2-one]
6120 nM | COc1ncc(-n2ncc3cc(C4CN(S(=O)(=O)c5cnn(C)n5)CCN4CCC(F)(F)F)c(C)cc32)cc1C (stereo not shown) [Example 206, 1-(6-methoxy-5-methyl-3-pyridyl)-6-methyl-5-(4-(2-methyltriazol-4-yl)sulfonyl-1-(3,3,3-trifluoropropyl)piperazin-2-yl)indazole]
